In patent US10053454B2 (Bristol-Myers Squibb Company, priority 2013, dated 2018):

molecular target: BRD4 (Homo sapiens, UniProt O60885); test: Time Resolved Fluorescence Resonance Energy Transfer (TR-FRET) binding assay; settings: one of the FRET assays described (BRD4 construct not given)

`Cc1noc(C)c1-c1cc(C(N)=O)c2c(c1)c1ccc(C(=O)N3CCS(=O)(=O)CC3)cc1n2S(C)(=O)=O` [Example 15, 3-(3,5-dimethyl-4-isoxazolyl)-7-((1,1-dioxido-4-thiomorpholinyl)carbonyl)-9-(methylsulfonyl)-9H-carbazole-1-carboxamide] and `Cc1noc(C)c1-c1cc(C(N)=O)c2c(c1)c1ccc(C(=O)N3CCOCC3)cc1n2S(C)(=O)=O` [Example 5, 3-(3,5-dimethyl-4-isoxazolyl)-9-(methylsulfonyl)-7-(4-morpholinylcarbonyl)-9H-carbazole-1-carboxamide] cannot be ordered by IC50: under 5000 nM for the first, under 50 nM for the second.

`Cc1noc(C)c1-c1cc(C(N)=O)c2c(c1)c1ccc(Br)cc1n2CC1CC1` [Example 34, 7-bromo-9-(cyclopropylmethyl)-3-(3,5-dimethyl-4-isoxazolyl)-9H-carbazole-1-carboxamide] and `Cc1noc(C)c1-c1cc(C(N)=O)c2c(c1)c1ccc(O)cc1n2CC1CC1` [Example 48, 9-(cyclopropylmethyl)-3-(3,5-dimethyl-4-isoxazolyl)-7-hydroxy-9H-carbazole-1-carboxamide] cannot be ordered by IC50: under 500 nM for the first, under 500 nM for the second.

`Cc1noc(C)c1-c1cc(C(N)=O)c2c(c1)c1c(S(C)(=O)=O)cccc1n2CC1CC1` [Example 81, 9-(cyclopropylmethyl)-3-(3,5-dimethyl-4-isoxazolyl)-5-(methylsulfonyl)-9H-carbazole-1-carboxamide] and `Cc1noc(C)c1-c1cc(C(N)=O)c2c(c1)c1ccc(S(C)(=O)=O)cc1n2CC1CC1` [Example 80, 9-(cyclopropylmethyl)-3-(3,5-dimethylisoxazol-4-yl)-7-(methylsulfonyl)-9H-carbazole-1-carboxamide] cannot be ordered by IC50: under 50 nM for the first, under 50 nM for the second.

`Cc1nocc1-c1cc(C(N)=O)c2c(c1)c1ccc(C(=O)N3C[C@@H](C)O[C@@H](C)C3)cc1n2CC1CC1` [Example 56, 9-(cyclopropylmethyl)-7-((cis-2,6-dimethyl-4-morpholinyl)carbonyl)-3-(3-methyl-4-isoxazolyl)-9H-carbazole-1-carboxamide] and `Cc1noc(C)c1-c1cc(C(N)=O)c2c(c1)c1ccc(C(=O)N3C[C@@H](C)O[C@@H](C)C3)cc1n2CC1CC1` [Example 2, 9-(cyclopropylmethyl)-3-(3,5-dimethyl-4-isoxazolyl)-7-((cis-2,6-dimethyl-4-morpholinyl)carbonyl)-9H-carbazole-1-carboxamide] cannot be ordered by IC50: under 500 nM for the first, under 50 nM for the second.

`Cc1noc(C)c1-c1cc(C(N)=O)c2c(c1)c1ccc(NCC3CCCC3)cc1n2CC1CC1` [Example 39, 7-(cyclopentylmethylamino)-9-(cyclopropylmethyl)-3-(3,5-dimethyl-4-isoxazolyl)-9H-carbazole-1-carboxamide] and `Cc1noc(C)c1-c1cc(C(N)=O)c2c(c1)c1ccc(CO)cc1n2CC1CC1` [Example 46, 9-(cyclopropylmethyl)-3-(3,5-dimethyl-4-isoxazolyl)-7-(hydroxymethyl)-9H-carbazole-1-carboxamide] cannot be ordered by IC50: under 500 nM for the first, under 500 nM for the second.

`Cc1noc(C)c1-c1cc(C(N)=O)c2c(c1)c1ccc(C(=O)N3CCCC(F)C3)cc1n2S(=O)(=O)C1CC1` (centres unmarked) [Example 23, 9-(cyclopropylsulfonyl)-3-(3,5-dimethyl-4-isoxazolyl)-7-((3-fluoro-1-piperidinyl)carbonyl)-9H-carbazole-1-carboxamide] and `Cc1noc(C)c1-c1cc(C(N)=O)c2c(c1)c1ccc(C(=O)N3CC(F)C3)cc1n2S(=O)(=O)C1CC1` [Example 21, 9-(cyclopropylsulfonyl)-3-(3,5-dimethyl-4-isoxazolyl)-7-((3-fluoro-1-azetidinyl)carbonyl)-9H-carbazole-1-carboxamide] cannot be ordered by IC50: under 50 nM for the first, under 50 nM for the second.

`Cc1noc(C)c1-c1cc(C(N)=O)c2c(c1)c1ccc(C(=O)N3C(C)(C)CC(O)CC3(C)C)cc1n2S(C)(=O)=O` [Example 16, 3-(3,5-dimethyl-4-isoxazolyl)-7-((4-hydroxy-2,2,6,6-tetramethyl-1-piperidinyl)carbonyl)-9-(methylsulfonyl)-9H-carbazole-1-carboxamide] and `COC1CN(C(=O)c2ccc3c4cc(-c5c(C)noc5C)cc(C(N)=O)c4n(S(C)(=O)=O)c3c2)C1` [Example 14, 3-(3,5-dimethyl-4-isoxazolyl)-7-((3-methoxy-1-azetidinyl)carbonyl)-9-(methylsulfonyl)-9H-carbazole-1-carboxamide] cannot be ordered by IC50: under 50 nM for the first, under 50 nM for the second.

`Cc1noc(C)c1-c1cc(-c2nnc[nH]2)c2c(c1)c1ccc(C(=O)N3C[C@@H](C)O[C@@H](C)C3)cc1n2CC1CC1` [Example 85, 9-(cyclopropylmethyl)-3-(3,5-dimethyl-4-isoxazolyl)-7-((cis-2,6-dimethyl-4-morpholinyl)carbonyl)-1-(1H-1,2,4-triazol-3-yl)-9H-carbazole] and `Cc1noc(C)c1-c1cc(C#N)c2c(c1)c1ccc(C(=O)N3CCOCC3)cc1n2CC1CC1` [Example 59, 9-(cyclopropylmethyl)-3-(3,5-dimethyl-4-isoxazolyl)-7-(4-morpholinylcarbonyl)-9H-carbazole-1-carbonitrile] cannot be ordered by IC50: under 500 nM for the first, under 5000 nM for the second.

`Cc1noc(C)c1-c1cc(C(N)=S)c2[nH]c3cc(C(=S)N4CCOCC4)ccc3c2c1` [Example 63, 3-(3,5-dimethyl-4-isoxazolyl)-7-(4-morpholinylcarbonothioyl)-9H-carbazole-1-carbothioamide] and `Cc1noc(C)c1-c1cc(-c2nc[nH]n2)c2[nH]c3cc(C(=O)N4CCOCC4)ccc3c2c1` [Example 69, 3-(3,5-dimethyl-4-isoxazolyl)-7-(4-morpholinylcarbonyl)-1-(1H-1,2,4-triazol-3-yl)-9H-carbazole] cannot be ordered by IC50: under 500 nM for the first, under 500 nM for the second.

`Cc1noc(C)c1-c1cc(C(N)=O)c2c(c1)c1ccc(N3CCCCC3=O)cc1n2CC1CC1` [Example 42, 9-(cyclopropylmethyl)-3-(3,5-dimethyl-4-isoxazolyl)-7-(2-oxo-1-piperidinyl)-9H-carbazole-1-carboxamide] and `Cc1noc(C)c1-c1cc(C(N)=O)c2c(c1)c1ccc(N3CCCOC3=O)cc1n2CC1CC1` [Example 43, 9-(cyclopropylmethyl)-3-(3,5-dimethyl-4-isoxazolyl)-7-(2-oxo-1,3-oxazinan-3-yl)-9H-carbazole-1-carboxamide] cannot be ordered by IC50: under 500 nM for the first, under 50 nM for the second.

`Cc1noc(C)c1-c1cc(C(N)=O)c2c(c1)c1cc(Br)c(Br)cc1n2CC1CC1` [Example 35, 6,7-dibromo-9-(cyclopropylmethyl)-3-(3,5-dimethyl-4-isoxazolyl)-9H-carbazole-1-carboxamide] and `Cc1noc(C)c1-c1cc(C(N)=O)c2c(c1)c1ccc(N(C)C)cc1n2CC1CC1` [Example 38, 9-(cyclopropylmethyl)-7-(dimethylamino)-3-(3,5-dimethyl-4-isoxazolyl)-9H-carbazole-1-carboxamide] cannot be ordered by IC50: under 500 nM for the first, under 50 nM for the second.

`Cc1noc(C)c1-c1cc(C(N)=O)c2c(c1)c1c(C(=O)N3C[C@@H](C)O[C@@H](C)C3)cc(OC(F)(F)F)cc1n2S(=O)(=O)C1CC1` [Example 75, 9-(cyclopropylsulfonyl)-3-(3,5-dimethyl-4-isoxazolyl)-5-((cis-2,6-dimethyl-4-morpholinyl)carbonyl)-7-(trifluoromethoxy)-9H-carbazole-1-carboxamide] and `Cc1noc(C)c1-c1cc(C(N)=O)c2c(c1)c1c(C(=O)N3C[C@@H](C)O[C@@H](C)C3)cc(C(F)(F)F)cc1n2S(=O)(=O)C1CC1` [Example 74, 9-(cyclopropylsulfonyl)-3-(3,5-dimethyl-4-isoxazolyl)-5-((cis-2,6-dimethyl-4-morpholinyl)carbonyl)-7-(trifluoromethyl)-9H-carbazole-1-carboxamide] cannot be ordered by IC50: under 500 nM for the first, under 500 nM for the second.

`CCNC(=O)Nc1ccc2c3cc(-c4c(C)noc4C)cc(C(N)=O)c3n(CC3CC3)c2c1` [Example 31, 9-(cyclopropylmethyl)-3-(3,5-dimethyl-4-isoxazolyl)-7-((ethylcarbamoyl)amino)-9H-carbazole-1-carboxamide] and `Cc1noc(C)c1-c1cc(C(N)=O)c2c(c1)c1ccc(N3CCCS3(=O)=O)cc1n2CC1CC1` [Example 71, 9-(cyclopropylmethyl)-3-(3,5-dimethyl-4-isoxazolyl)-7-(1,1-dioxido-2-isothiazolidinyl)-9H-carbazole-1-carboxamide] cannot be ordered by IC50: under 500 nM for the first, under 50 nM for the second.

`Cc1noc(C)c1-c1cc(C(N)=O)c2c(c1)c1ccc(C(=O)N3CCCC(F)C3)cc1n2S(C)(=O)=O` (centres unmarked) [Example 13, 3-(3,5-dimethyl-4-isoxazolyl)-7-((3-fluoro-1-piperidinyl)carbonyl)-9-(methylsulfonyl)-9H-carbazole-1-carboxamide] and `Cc1noc(C)c1-c1cc(C(N)=O)c2c(c1)c1ccc(C(=O)N3CCC(F)CC3)cc1n2S(C)(=O)=O` [Example 8, 3-(3,5-dimethyl-4-isoxazolyl)-7-((4-fluoro-1-piperidinyl)carbonyl)-9-(methylsulfonyl)-9H-carbazole-1-carboxamide] cannot be ordered by IC50: under 50 nM for the first, under 500 nM for the second.

`Cc1noc(C)c1-c1cc(C(N)=O)c2c(c1)c1c(C(=O)N3C[C@@H](C)O[C@@H](C)C3)cc(C(F)(F)F)cc1n2S(C)(=O)=O` [Example 73, 3-(3,5-dimethyl-4-isoxazolyl)-5-((cis-2,6-dimethyl-4-morpholinyl)carbonyl)-9-(methylsulfonyl)-7-(trifluoromethyl)-9H-carbazole-1-carboxamide] and `Cc1noc(C)c1-c1cc(C(N)=O)c2c(c1)c1ccc(C(=O)N3CCC(C#N)CC3)cc1n2S(=O)(=O)C1CC1` [Example 20, 7-((4-cyano-1-piperidinyl)carbonyl)-9-(cyclopropylsulfonyl)-3-(3,5-dimethyl-4-isoxazolyl)-9H-carbazole-1-carboxamide] cannot be ordered by IC50: under 500 nM for the first, under 50 nM for the second.

`Cc1cnc(-c2cc(-c3c(C)noc3C)cc3c2[nH]c2cc(C(=O)N4CCOCC4)ccc23)o1` [Example 62, 3-(3,5-dimethyl-4-isoxazolyl)-1-(5-methyl-1,3-oxazol-2-yl)-7-(4-morpholinylcarbonyl)-9H-carbazole] and `Cc1noc(C)c1-c1cc(C(N)=O)c2c(c1)c1ccc(N(c3nccs3)c3nccs3)cc1n2CC1CC1` [Example 30, 9-(cyclopropylmethyl)-3-(3,5-dimethyl-4-isoxazolyl)-7-(di-1,3-thiazol-2-ylamino)-9H-carbazole-1-carboxamide] cannot be ordered by IC50: under 5000 nM for the first, under 500 nM for the second.
